Patent US9493461B2, “Tetracyclic heterocycle compounds and methods of use thereof for the treatment of hepatitis C” (priority 2013, dated 2016)
pIC50: −log10 of the molar value. Like-named read-outs stand apart in the source and are kept apart here.

Columns and labels:
[1] = tested on: HCV replicon genotype 1b; assay: HCV replicon assay, genotype 1b (cell ELISA for replicon-encoded NS3/4A); assay type: cell-based, hepatitis C virus (HCV); details: for IC50: Hepatitis C virus, 96 h, read-out: 1b IC50 (nM), genotype 1b replicon cells, 96 hours incubation, NS3/4A ELISA readout, % of DMSO control; for pIC50: read-out: 1b IC50, genotype 1b replicon cells, 96 hours incubation, NS3/4A ELISA readout, % of DMSO control
Summary of the method: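 Genotype 1b replicon cells (neomycin-selected, G418 removed for assay) incubated 96 h with compound dilution series. Replication measured by cell ELISA for replicon-encoded NS3/4A after lysis; IC50 from four-parameter fit relative to DMSO control.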

[2] = tested on: HCV replicon genotype 1a; assay: HCV replicon assay, genotype 1a (cell ELISA for replicon-encoded NS3/4A); assay type: cell-based, hepatitis C virus (HCV); details: for IC50: Hepatitis C virus, 96 h, read-out: 1a IC50 (nM), genotype 1a replicon cells, 96 hours incubation, NS3/4A ELISA readout, % of DMSO control; for pIC50: read-out: 1a IC50, genotype 1a replicon cells, 96 hours incubation, NS3/4A ELISA readout, % of DMSO control
Summary of the method: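 Stable G418-selected neomycin-resistant HCV replicon cells were plated with serially diluted compound without G418 and incubated 96 h. After washing and lysis, replicon RNA was measured indirectly by cell ELISA for replicon-encoded NS3/4A; IC50 from four-parameter fit relative to DMSO control.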

Row | SMILES | IC50 [1] [nM] | IC50 [2] [nM] | pIC50 [1] | pIC50 [2]
1 | CNC(=O)c1c(C2CC2)oc2cc(N(C)S(C)(=O)=O)c(-c3ccc4ncn5c6cccc(F)c6cc5c4n3)cc12 [Example 8] | 5.82 | 5.71 |  | 
2 | CNC(=O)c1c(-c2ccc(F)cc2)oc2cc(N(C)S(C)(=O)=O)c(-c3ccc4nc(CN5CC(O)C5)n5c6cccc(F)c6cc5c4n3)cc12 [Example 77] | 5.61 | 5.26 |  | 
3 | CNC(=O)c1c(-c2ccc(F)cc2)oc2cc(N(C)S(C)(=O)=O)c(-c3ccc4nc(C(C)N5CC(F)C5)n5c6cccc(F)c6cc5c4n3)cc12 (single isomer, unassigned) [Example 40, (S or R)-5-(11-fluoro-6-(1-(3-fluoroazetidin-1-yl)ethyl)pyrido[3′,2′:4,5]pyrimido[1,6-a]indol-2-yl)-2-(4-fluorophenyl)-N-methyl-6-(N-methylmethylsulfonamido)benzofuran-3-carboxamide] |  |  | 8.35 | 8.41
4 | CNC(=O)c1c(-c2ccc(F)cc2)oc2cc(N(C)S(C)(=O)=O)c(-c3ccc4nc(CN5CC[C@@H](F)C5)n5c6cccc(F)c6cc5c4n3)cc12 [Example 85] | 2.34 | 1.76 |  | 
5 | CNC(=O)c1c(-c2ccc(F)cc2)oc2cc(N(C)S(C)(=O)=O)c(-c3ccc4c(c3)-c3cc5ccccc5n3CN4S(C)(=O)=O)cc12 [Example 42, 2-(4-fluorophenyl)-N-methyl-6-(N-methylmethylsulfonamido)-5-(5-(methylsulfonyl)-5,6-dihydroindolo[1,2-c]quinazolin-2-yl)benzofuran-3-carboxamide] | 13.1 | 17.2 |  | 
6 | CNC(=O)c1c(-c2ccc(F)cc2)oc2cc(N(C)S(C)(=O)=O)c(-c3ccc4nc(CN5CC(C)(F)C5)n5c6cccc(F)c6cc5c4n3)cc12 [Example 81] | 3.28 | 3.24 |  | 
7 | CNC(=O)c1c(-c2ccc(F)cc2)oc2cc(N(C)S(C)(=O)=O)c(-c3ccc4nc(CN)n5c6cccc(F)c6cc5c4n3)cc12 [Example 111] | 7.79 | 4.15 |  | 
8 | CNC(=O)c1c(-c2ccc(F)cc2F)oc2cc(N(C)S(C)(=O)=O)c(-c3ccc4nc(CN5CC(S(C)(=O)=O)C5)n5c6cccc(F)c6cc5c4n3)cc12 [Example 149] | 2.49 | 3.38 |  | 
9 | CNC(=O)c1c(-c2ccc(F)cc2F)oc2cc(N(C)S(C)(=O)=O)c(-c3ccc4nc(CN5CC(C)(F)C5)n5c6cccc(F)c6cc5c4n3)cc12 [Example 140] | 4.31 | 2.95 |  | 
10 | CNC(=O)c1c(-c2ccc(C)nc2)oc2cc(N(C)S(C)(=O)=O)c(-c3cc4c(cn3)ncn3c5cccc(F)c5cc43)cc12 [Example 19] | 5.64 | 2.79 |  | 
11 | CNC(=O)c1c(-c2ccc(F)cc2)oc2cc(N(C)S(C)(=O)=O)c(-c3ccc4nc(CN5CC(F)(F)C5)n5c6cccc(C#N)c6cc5c4n3)cc12 [Example 124] | 1.76 | 1.89 |  | 
12 | CNC(=O)c1c(C(=O)N2CCC2(C)C)oc2cc(N(C)S(C)(=O)=O)c(-c3ccc4ncn5c6cccc(F)c6cc5c4n3)cc12 [Example 52] | 120 | 260 |  | 
13 | CNC(=O)c1c(-c2ccc(F)cc2)oc2cc(N(C)S(C)(=O)=O)c(-c3ccc4c(n3)-c3cc5c(F)cccc5n3CN4C)cc12 [Example 67, 5-(11-fluoro-5-methyl-5,6-dihydropyrido[3′,2′:4,5]pyrimido[1,6-a]indol-2-yl)-2-(4-fluorophenyl)-N-methyl-6-(N-methylmethylsulfonamido)benzofuran-3-carboxamide] | 2.72 | 1.56 |  | 
14 | CNC(=O)c1c(-c2ccc(F)cc2)oc2cc(N(C)S(C)(=O)=O)c(-c3ccc4nc(CN5CCC(F)(F)C5)n5c6cccc(F)c6cc5c4n3)cc12 [Example 82] | 2.45 | 2.74 |  | 
15 | CCOP(=O)(Cc1nc2ccc(-c3cc4c(C(=O)NC)c(-c5ccc(F)cc5)oc4cc3N(C)S(C)(=O)=O)nc2c2cc3c(F)cccc3n12)OCC [Example 49, diethyl ((11-fluoro-2-(2-(4-fluorophenyl)-3-(methylcarbamoyl)-6-(N-methylmethylsulfonamido)benzofuran-5-yl)pyrido[3′,2′:4,5]pyrimido[1,6-a]indol-6-yl)methyl)phosphonate] | 4.88 | 2.78 |  | 
16 | CNC(=O)c1c(-c2ccc(F)cc2)oc2cc(N(C)S(C)(=O)=O)c(-c3ccc4ncn5c6cccc(F)c6cc5c4n3)cc12 [Example 55, 2-(4-fluorophenyl)-5-(11-fluoropyrido[3′,2′:4,5]pyrimido[1,6-a]indol-2-yl)-N-methyl-6-(N-methylmethylsulfonamido)benzofuran-3-carboxamide] |  |  | 8.70 | 8.81
17 | CNC(=O)c1c(-c2ccc(F)cc2)oc2cc(N(C)S(C)(=O)=O)c(-c3ccc4nc(CN5CC6(CCOCC6)C5)n5c6cccc(F)c6cc5c4n3)cc12 [Example 79] | 3.99 | 2.37 |  | 

Row | SMILES | IC50 [1] [nM] | IC50 [2] [nM] | pIC50 [1] | pIC50 [2]
18 | CNC(=O)c1c(-c2ccc(F)cc2)oc2cc(N(C)S(C)(=O)=O)c(-c3ccc4c(n3)-c3cc5c(F)cccc5n3CN4CC(=O)O)cc12 [Example 70, 2-(11-fluoro-2-(2-(4-fluorophenyl)-3-(methylcarbamoyl)-6-(N-methylmethylsulfonamido)benzofuran-5-yl)pyrido[3′,2′:4,5]pyrimido[1,6-a]indol-5(6H)-yl)acetic acid] | 26.8 | 35.2 |  | 
19 | CNC(=O)c1c(-c2ccc(F)cc2F)oc2cc(N(C)S(C)(=O)=O)c(-c3ccc4nc(CN5CCC(F)(F)CC5)n5c6cccc(F)c6cc5c4n3)cc12 [Example 47] | 11.2 | 9.67 |  | 
20 | CNC(=O)c1c(-c2ccc(F)cc2)oc2cc(N(C)S(C)(=O)=O)c(-c3cc4c(cn3)nc(CN3CC(C)(F)C3)n3c5cccc(F)c5cc43)cc12 [Example 118] | 4.24 | 2.67 |  | 
21 | CNC(=O)c1c(-c2ccc(F)cc2)oc2cc(N(C)S(C)(=O)=O)c(-c3ccc4nc(CN5CC(C)(OC)C5)n5c6cccc(C#N)c6cc5c4n3)cc12 [Example 126] | 2.72 | 2.24 |  | 
22 | CNC(=O)c1c(-c2ccc(F)cc2)oc2cc(N(C)S(C)(=O)=O)c(-c3ccc4nc(CN5CCN(C)CC5)n5c6cccc(F)c6cc5c4n3)cc12 [Example 108] | 8.48 | 6.08 |  | 
23 | CNC(=O)c1c(-c2ccc(F)cc2)oc2cc(N(C)S(C)(=O)=O)c(-c3ccc4nc(CN5CC[C@H](F)C5)n5c6cccc(F)c6cc5c4n3)cc12 [Example 86] | 2.66 | 1.99 |  | 
24 | CNC(=O)c1c(C2CC2)oc2cc(N(C)S(C)(=O)=O)c(-c3ccc4nc(CN5CC(F)C5)n5c6cccc(F)c6cc5c4n3)cc12 [Example 33] |  |  | 8.59 | 8.63
25 | CNC(=O)c1c(-c2ccc(C(F)F)nc2)oc2cc(N(C)S(C)(=O)=O)c(-c3ccc4ncn5c6cccc(F)c6cc5c4n3)cc12 [Example 3] | 4.12 | 3.38 |  | 
26 | CNC(=O)c1c(-c2ccc(F)cc2)oc2cc(N(C)S(C)(=O)=O)c(-c3cnc4ncn5c6cccc(F)c6cc5c4c3)cc12 [Example 59, 2-(4-fluorophenyl)-5-(11-fluoropyrido[2′,3′:4,5]pyrimido[1,6-a]indol-2-yl)-N-methyl-6-(N-methylmethylsulfonamido)benzofuran-3-carboxamide] | 2.16 | 2 |  | 
27 | CNC(=O)c1c(-c2ccc(F)cc2)oc2cc(N(C)S(C)(=O)=O)c(-c3ccc4nc(CN5CC(F)C5)n5c6cccc(C#N)c6cc5c4n3)cc12 [Example 120] | 2.01 | 1.67 |  | 
28 | CCc1ncc(-c2oc3cc(N(C)S(C)(=O)=O)c(-c4ccc5ncn6c7cccc(F)c7cc6c5n4)cc3c2C(=O)NC)s1 [Example 53, 2-(2-ethylthiazol-5-yl)-5-(11-fluoropyrido[3′,2′:4,5]pyrimido[1,6-a]indol-2-yl)-N-methyl-6-(N-methylmethylsulfonamido)benzofuran-3-carboxamide] | 6.37 | 7.79 |  | 
29 | CNC(=O)c1c(-c2ccc(F)cc2)oc2cc(N(C)S(C)(=O)=O)c(-c3ccc4nc(CN5CCC(F)(C#N)CC5)n5c6cccc(F)c6cc5c4n3)cc12 [Example 106] | 8.2 | 7.25 |  | 
30 | CNC(=O)c1c(-c2ccc(F)cc2)oc2cc(N(C)S(C)(=O)=O)c(-c3ccc4nc(Cn5cncn5)n5c6cccc(F)c6cc5c4n3)cc12 [Example 116] | 1.7 | 1.88 |  | 
31 | CNC(=O)c1c(-c2ccc(F)cc2)oc2cc(N(C)S(C)(=O)=O)c(-c3ccc4nc(C(C)N5CC(F)C5)n5c6cccc(F)c6cc5c4n3)cc12 (single isomer, unassigned) [Example 39, (R or S)-5-(11-fluoro-6-(1-(3-fluoroazetidin-1-yl)ethyl)pyrido[3′,2′:4,5]pyrimido[1,6-a]indol-2-yl)-2-(4-fluorophenyl)-N-methyl-6-(N-methylmethylsulfonamido)benzofuran-3-carboxamide] | 6.08 | 6.37 |  | 
32 | CNC(=O)c1c(C(=O)N2CC(F)C2)oc2cc(N(C)S(C)(=O)=O)c(-c3ccc4ncn5c6cccc(F)c6cc5c4n3)cc12 [Example 50, 2-(3-fluoroazetidine-1-carbonyl)-5-(11-fluoropyrido[3′,2′:4,5]pyrimido[1,6-a]indol-2-yl)-N-methyl-6-(N-methylmethylsulfonamido)benzofuran-3-carboxamide] | 19.8 | 18.1 |  | 
33 | CNC(=O)c1c(-n2ccccc2=O)oc2cc(N(C)S(C)(=O)=O)c(-c3ccc4nc(CN5CC(F)C5)n5c6cccc(F)c6cc5c4n3)cc12 [Example 29] | 3.63 | 2.21 |  | 
